Assay results reported in patent US10597388B2, “Pyridazinone herbicides” (FMC CORPORATION, priority 2014, dated 2020).

Experiments:
Assay type in all cases: in vivo
[1] = test system: waterhemp (common waterhemp, Amaranthus rudis); experiment: Test E greenhouse herbicide test, pre- and postemergence
Summary of the method: (§1)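 Herbicidal effect was judged by eye relative to untreated plants 14 to 21 d after spraying, using 0 for no effect and 100 for complete control. Preemergence sprays went onto freshly seeded silt loam; postemergence sprays onto 2–18 cm seedlings.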

[2] = test system: wild poinsettia (Euphorbia heterophylla); experiment: as above
Summary of the method: as §1

[3] = test system: goosegrass (Eleusine indica); experiment: as above; conditions: Preemergence
Summary of the method: as §1

[4] = test system: geranium, cutleaf (cutleaf geranium, Geranium dissectum); experiment: Test D controlled growth environment herbicide test, pre- and postemergence
Summary of the method: (§2)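 Rating is visual, 0–100 scale (100 = complete control), made against untreated plants 14–21 d after treatment in controlled growth conditions. Postemergence sprays went onto 1- to 4-leaf plants in peat medium; preemergence sprays onto silt loam after sowing; formulation included a surfactant.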

[5] = test system: Canada thistle (Cirsium arvense); experiment: as above; conditions: for Canada Thistle plant response rating / Plant response rating (scale of 0 to 100), Canada Thistle: 31 g ai/ha
Summary of the method: as §2

[6] = 62 g ai/ha, Preemergence, scale 0 to 100 (0 no effect, 100 complete control)
[7] = 125 g ai/ha, Postemergence, scale 0 to 100 (0 no effect, 100 complete control)
[8] = 125 g ai/ha, Preemergence, scale 0 to 100 (0 no effect, 100 complete control)
[9] = 250 g ai/ha, Postemergence, scale 0 to 100 (0 no effect, 100 complete control)
[10] = Preemergence, 31 g ai/ha, scale 0 to 100, 0 no effect, 100 complete control
[11] = Preemergence, 250 g ai/ha, visual, scale 0 no effect to 100 complete control
[12] = 62 g ai/ha, scale 0 to 100 (0 no effect, 100 complete control)
[13] = 31 g ai/ha, scale 0 to 100, 0 no effect, 100 complete control
[14] = 250 g ai/ha, visual, scale 0 no effect to 100 complete control
[15] = Postemergence, 31 g ai/ha, visual, scale 0 no effect to 100 complete control
[16] = 62 g ai/ha, Postemergence, scale 0 to 100 (0 no effect, 100 complete control)
[17] = 125 g ai/ha, scale 0 to 100 (0 no effect, 100 complete control)
[18] = Postemergence, 31 g ai/ha, scale 0 to 100 (0 no effect, 100 complete control)
[19] = Postemergence, 125 g ai/ha, visual rating on scale 0 (no effect) to 100 (complete control), 14 to 21 d
[20] = Postemergence, 250 g ai/ha, scale 0 to 100 (0 no effect, 100 complete control)
[21] = Preemergence, 125 g ai/ha, scale 0 to 100 (0 no effect, 100 complete control)
[22] = Preemergence, 250 g ai/ha, scale 0 to 100 (0 no effect, 100 complete control)
[23] = postemergence, 62 g ai/ha, scale 0 to 100, 0 no effect, 100 complete control
[24] = Postemergence, scale 0 to 100 (0 no effect, 100 complete control)
[25] = Preemergence, 62 g ai/ha, scale 0 to 100 (0 no effect, 100 complete control)
[26] = Postemergence, 16 g ai/ha, visual, scale 0 no effect to 100 complete control
[27] = Preemergence, 16 g ai/ha, scale 0 to 100, 0 no effect, 100 complete control
[28] = Preemergence, scale 0 to 100, 0 no effect, 100 complete control

SMILES | Plant response rating, Waterhemp [1, 6] | Plant response rating, Waterhemp [1, 7] | Plant response rating, Waterhemp [1, 8] | Plant response rating, Waterhemp [1, 9] | Plant response rating, Waterhemp [1, 10] | Plant response rating, Waterhemp [1, 11] | Plant response rating, Poinsettia, Wild [2, 7] | Plant response rating, Poinsettia, Wild [2, 9] | Plant response rating, Goosegrass [3, 12] | Plant response rating, Goosegrass [3, 13] | Plant response rating, Goosegrass [3, 14] | Plant response rating, Waterhemp [1, 15] | Plant response rating, Poinsettia, Wild [2, 16] | Plant response rating, Poinsettia, Wild [2, 6] | Plant response rating, Poinsettia, Wild [2, 8] | Plant response rating, Poinsettia, Wild [2, 15] | Plant response rating, Poinsettia, Wild [2, 10] | Plant response rating, Poinsettia, Wild [2, 11] | Plant response rating, Goosegrass [3, 17] | Geranium, Cutleaf plant response rating [4, 18] | also measured
CCC(=O)Oc1c(C)nn(C)c(=O)c1-c1c(C)sc2c(C)cc(C)cc12 [Compound 28] | 80 | 70 | 98 | 75 | 65 | 100 | 50 | 40 | 60 | 35 | 90 | – | – | – | – | – | – | – | – | – | Plant response rating, Goosegrass ([3]; 125 g ai/ha, visual, scale 0 no effect to 100 complete control): 75
COC(=O)Oc1c(C)nn(C)c(=O)c1-c1c(C)sc2c(C)cc(C)cc12 [Compound 81] | 90 | 60 | 90 | 75 | 60 | 90 | 40 | 50 | 40 | 20 | 80 | 50 | 40 | 5 | 30 | 30 | 0 | 60 | 70 | – | –
CCOC(=O)Oc1c(C)nn(C)c(=O)c1-c1c(C)sc2ccc(C)cc12 [Compound 82] | 90 | 85 | 100 | 90 | 85 | 100 | 40 | 50 | 25 | 20 | 90 | 70 | 30 | 0 | 0 | 40 | 0 | 20 | 70 | – | –
C#CCOC(=O)Oc1c(C)nn(C)c(=O)c1-c1c(C)sc2ccc(C)cc12 [Compound 87] | 90 | – | 90 | – | 75 | 100 | – | – | 0 | 0 | 75 | – | – | 15 | 15 | – | 0 | 20 | 60 | – | –
CC(=O)Oc1c(C)nn(C)c(=O)c1-c1ccc(F)c2ccccc12 [Compound 90] | – | 90 | – | – | – | – | 60 | – | – | – | – | 70 | 50 | – | – | 35 | – | – | – | 45 | Plant response rating, Geranium, Cutleaf [4, 19]: 75; Plant response rating, Geranium, Cutleaf [4, 20]: 95; Plant response rating (scale of 0 to 100), Geranium, Cutleaf ([4]; Preemergence, 31 g ai/ha): 0; Plant response rating (scale of 0 to 100), Geranium, Cutleaf ([4]; Preemergence, 62 g ai/ha): 60; Plant response rating, Geranium, Cutleaf [4, 21]: 65; Plant response rating, Geranium, Cutleaf [4, 22]: 90; Plant response rating, Geranium, Cutleaf [4, 23]: 65; Canada Thistle plant response rating [5, 24]: 98; Plant response rating, Canada Thistle [5, 19]: 100; Plant response rating, Canada Thistle [5, 20]: 98; Plant response rating (scale of 0 to 100), Canada Thistle ([5]; Preemergence): 50; Plant response rating, Canada Thistle [5, 25]: 95; Plant response rating, Canada Thistle [5, 21]: 100; Plant response rating, Canada Thistle [5, 22]: 100; Plant response rating, Canada Thistle [5, 23]: 100; Plant response rating, Waterhemp [1, 26]: 50; Plant response rating, Poinsettia, Wild [2, 26]: 20
CCC(=O)Oc1c(C)nn(C)c(=O)c1-c1c(C)sc2ccc(Cl)cc12 [Compound 109] | – | 90 | 98 | – | 0 | – | 50 | – | 25 | 20 | – | 75 | 45 | – | 30 | 25 | 10 | – | 50 | – | Plant response rating, Waterhemp [1, 26]: 60; Plant response rating, Waterhemp [1, 27]: 0; Plant response rating, Poinsettia, Wild [2, 26]: 0; Plant response rating, Poinsettia, Wild [2, 27]: 10; Plant response rating, Poinsettia, Wild [2, 28]: 25; Plant response rating, Goosegrass ([3]; 16 g ai/ha, scale 0 to 100, 0 no effect, 100 complete control): 0
CC(=O)Oc1c(Br)nn(C)c(=O)c1-c1c(C)ccc2ccccc12 [Compound 129] | – | – | – | – | – | – | – | – | – | – | – | – | – | – | – | – | – | – | – | 60 | Plant response rating, Geranium, Cutleaf [4, 19]: 75; Plant response rating, Geranium, Cutleaf [4, 20]: 75; Plant response rating (scale of 0 to 100), Geranium, Cutleaf ([4]; Preemergence, 31 g ai/ha): 0; Plant response rating (scale of 0 to 100), Geranium, Cutleaf ([4]; Preemergence, 62 g ai/ha): 0; Plant response rating, Geranium, Cutleaf [4, 21]: 70; Plant response rating, Geranium, Cutleaf [4, 22]: 95; Plant response rating, Geranium, Cutleaf [4, 23]: 70; Canada Thistle plant response rating [5, 24]: 100; Plant response rating, Canada Thistle [5, 19]: 100; Plant response rating, Canada Thistle [5, 20]: 100; Plant response rating (scale of 0 to 100), Canada Thistle ([5]; Preemergence): 80; Plant response rating, Canada Thistle [5, 25]: 100; Plant response rating, Canada Thistle [5, 21]: 100; Plant response rating, Canada Thistle [5, 22]: 100; Plant response rating, Canada Thistle [5, 23]: 100
CC(=O)Oc1c(C)nn(C)c(=O)c1-c1c(C)cc(C)c2ccccc12 [Compound 153] | – | 50 | 85 | 75 | 60 | 100 | 50 | 75 | 40 | 40 | 75 | 50 | 30 | – | 60 | 20 | 40 | 75 | 60 | 75 | Plant response rating, Geranium, Cutleaf [4, 19]: 90; Plant response rating, Geranium, Cutleaf [4, 20]: 98; Plant response rating (scale of 0 to 100), Geranium, Cutleaf ([4]; Preemergence, 31 g ai/ha): 35; Plant response rating (scale of 0 to 100), Geranium, Cutleaf ([4]; Preemergence, 62 g ai/ha): 75; Plant response rating, Geranium, Cutleaf [4, 21]: 85; Plant response rating, Geranium, Cutleaf [4, 22]: 90; Plant response rating, Geranium, Cutleaf [4, 23]: 90; Canada Thistle plant response rating [5, 24]: 98; Plant response rating, Canada Thistle [5, 19]: 100; Plant response rating, Canada Thistle [5, 20]: 100; Plant response rating (scale of 0 to 100), Canada Thistle ([5]; Preemergence): 100; Plant response rating, Canada Thistle [5, 25]: 100; Plant response rating, Canada Thistle [5, 21]: 100; Plant response rating, Canada Thistle [5, 22]: 100; Plant response rating, Canada Thistle [5, 23]: 98; Plant response rating, Poinsettia, Wild [2, 28]: 50
